# Measured values published in US11685716B2, “Plant growth inhibiting agent, and plant growth inhibiting method using same” (NATIONAL UNIVERSITY CORPORATION KUMAMOTO UNIVERSITY, priority 2017, dated 2023).
# Experiments:
# [1] = tested on: morning glory; experiment: Seed treatment, plant growth inhibition index (Evaluation 11); type: in vivo; set-up: key: 0: No effect; 1: Growth of the root part was inhibited 50% or less compared with non-treated area.; 2: Growth of the root part was inhibited 50% or more compared with non-treated area.; 3: Growth of the root part was substantially inhibited.; 4: Germination was inhibited
# Experimental: (§1) The compound of the present invention (2 mg) was dissolved in a 1.5% Tween dimethylformamide solution (100 μL) to use as a test chemical solution.
# (§2) Eight mL of sterilized water was poured to a cherry cup (100Φ×45 mm) lined with a filter paper, subsequently 81.1 μL of the sterilized water was removed, and 81.1 μL of the test chemical solution was added such that a final concentration of the compound was 800 μM.
# (§3) Further, cherry cups were similarly prepared such that a final concentration of the compound was 200 μM.
# (§4) Seeds (Japanese millet: 3 grains, velvet leaf: 6 grains, Ragweed: 8 grains, morning glory: 2 grains) were planted on the filter paper in the cherry cups, followed by growing the plants in a thermostatic chamber at 25° C. under a light-dark cycle in which a light period is 12 hours and a dark period is 12 hours for 6 days.
# (§5) In addition, with regards to the compound (9a) and the compound (9b), the plants were tested for 7 days.
# (§6) Plant growth inhibition effects of the compounds were evaluated by conversion to indexes according to the following investigation criteria.
# [2] = tested on: velvet leaf; experiment: as above; type: in vivo; set-up: key: 0: No effect; 1: Growth of the root part was inhibited 50% or less compared with non-treated area.; 2: Growth of the root part was inhibited 50% or more compared with non-treated area.; 3: Growth of the root part was substantially inhibited.; 4: Germination was inhibited
# Experimental: as §1, §2, §3, §4, §5, §6
# [3] = tested on: Japanese millet; experiment: as above; type: in vivo; set-up: key: 0: No effect; 1: Growth of the root part was inhibited 50% or less compared with non-treated area.; 2: Growth of the root part was inhibited 50% or more compared with non-treated area.; 3: Growth of the root part was substantially inhibited.; 4: Germination was inhibited
# Experimental: as §1, §2, §3, §4, §5, §6
# [4] = tested on: Ragweed; experiment: as above; type: in vivo; set-up: key: 0: No effect; 1: Growth of the root part was inhibited 50% or less compared with non-treated area.; 2: Growth of the root part was inhibited 50% or more compared with non-treated area.; 3: Growth of the root part was substantially inhibited.; 4: Germination was inhibited
# Experimental: as §1, §2, §3, §4, §5, §6
# [5] = tested on: thale cress; experiment: Plant growth inhibition index, thale cress on agar medium in test tube (Evaluation 8, 9); type: in vivo, thale cress (Col-0, wild-type strain); set-up: key: 0: No effect; 1: Growth of the root part was inhibited 50% or less compared with non-treated area.; 2: Growth of the root part was inhibited 50% or more compared with non-treated area.; 3: Growth of the root part was substantially inhibited.; 4: Germination was inhibited; settings: for Index: Concentration 200 μM, 8 days (Evaluation 9, Table 2)
# Experimental: 0.44% (w/v) Mixed salts for Murashige and Skoog medium (SIGMA), 1% (w/v) sucrose, and 0.05% (w/v) MES were mixed, and pH of the solution was adjusted to pH 5.7 with potassium hydroxide. 1.5% (w/v) Agar was added to the mixture, which was sterilized at 120° C. in an autoclave for 20 minutes. The test compound and dimethylformamide containing 1.5% of polyoxyethylenesorbitan monolaurate for a control experiment, were added at this stage and blended. In addition, the compound was used by adjusting an addition concentration to 200 μM. Four ml each of the medium was dispensed in sterile glass test tube ([…] RIKA GLASS CO., LTD.) to prepare agar medium.
# As a plant material, Col-0, which is a wild-type strain of thale cress, was used.
# Seeds, after their surfaces were sterilized, were planted on the agar medium, and the growth of the plant was carried out in a plant incubator (CFH-405) under the conditions of an illuminance of 3 at 23° C. with constant light. The plants on the agar medium were grown for 8 days in the chamber.
# The plant growth inhibition effect of the compounds was evaluated by conversion to indexes according to the following investigation criteria.
# [6] = tested on: velvet leaf; experiment: Spray treatment to stems and leaves, killing weed index (Evaluation 10); type: in vivo; settings: 2000 g active ingredient per hectare, two weeks later
# Experimental: (§7) POA allyl phenyl ether (4.1 parts by weight), POE-POP glycol (1 part by weight), POE sorbitan laurate (0.8 parts by weight), glycerin (2.6 parts by weight), dimethylformamide (65.9 parts by weight), N-methylpyrrolidone (5.1 parts by weight), cyclohexanone (15.4 parts by weight), and aromatic hydrocarbon (5.1 parts by weight) were mixed and dissolved to prepare an emulsion. The compounds of the present invention (4 mg) were dissolved in this emulsion (100 μL) to prepare a test emulsion. In addition, POA means “polyoxyalkylene”, POE means “polyoxyethylene”, and POP means “polyoxypropylene.”
# (§8) Four hundred μL of the above test emulsion was diluted with 7600 μL of water to use as a test spray liquid.
# (§9) Further, 400 μL of the above test emulsion was diluted with 1600 μL of a 1% Tween20 aqueous solution to use as a spray liquid for a small amount spray test.
# (§10) For a comparative spray liquid, 53 μL of a 30% pendimethalin emulsion (Gogosan emulsion: manufactured by BASF Japan) as a control pesticides was diluted with 7947 μL of water. Further, for a comparative spray liquid for a small amount spray test, 53 μL of the 30% pendimethalin emulsion was diluted with 1947 μL of water.
# (§11) A 150 cm^2 pot was filled with a soil, seeds of each purple amaranth, Japanese bristlegrass, southern crabgrass, and velvet leaf were sown on the surface layer, lightly covered with a soil and grown in a greenhouse. When each plant grew to a plant height of 2 to 9 cm, the test spray liquid was sprayed to the stem and leaf parts with a small spraying machine such that an active ingredient amount was 2000 g per hectare and a sprayed liquid amount was 1000 L per hectare.
# (§12) Similarly, the test spray liquid for a small amount spray test was sprayed to the stem and leaf parts with a small spraying machine such that an active ingredient amount was 2000 g per hectare and a sprayed liquid amount was 250 L per hectare.
# (§13) Two weeks later, the above-ground grass weight in non-treated areas and the above-ground grass weight in treated areas, by the weed, were measured to calculate a killing weed rate by the following calculating formula.
# (§14) (a) Calculating Formula of Weeding Rate Killing weed rate (%)=(above-ground grass weight in non-treated area−above-ground grass weight in treated area)/(above-ground grass weight in non-treated area)×100 (b) Killing Weed Indexes
# (§15) The obtained killing weed rates were evaluated, such that a killing weed index was “10” when a killing weed rate is 100%, as “9” when a killing weed rate is 99% to 90%, “8” when a killing weed rate is 89% to 80%, “7” when a killing weed rate is 79% to 70%, “6” when a killing weed rate is 69% to 60%, “5” when a killing weed rate is 59% to 50%, “4” when a killing weed rate is 49% to 40%, “3” when a killing weed rate is 39% to 30%, “2” when a killing weed rate is 29% to 20%, “1” when a killing weed rate is 19% to 10%, and “0” when a killing weed rate is 9% to 0%.
# [7] = tested on: Japanese bristlegrass; experiment: as above; type: in vivo; settings: 2000 g active ingredient per hectare, sprayed liquid amount 250 L/ha, two weeks later
# Experimental: as §7, §8, §9, §10, §11, §12, §13, §14, §15
# [8] = tested on: purple amaranth; experiment: as above; type: in vivo; settings: 2000 g active ingredient per hectare, two weeks later
# Experimental: as §7, §8, §9, §10, §11, §12, §13, §14, §15
# [9] = tested on: southern crabgrass; experiment: as above; type: in vivo; settings: 2000 g active ingredient per hectare, two weeks later
# Experimental: as §7, §8, §9, §10, §11, §12, §13, §14, §15
# [10] = 200 μM, 6 days (9a, 9b: 7 days)
# [11] = sprayed liquid amount 1000 L/ha
SMILES,"plant growth inhibition index, Morning glory [1, 10]","plant growth inhibition index, Morning glory ([1]; 800 μM, 6 days)","plant growth inhibition index, Velvet leaf [2, 10]","plant growth inhibition index, Velvet leaf ([2]; 800 μM, 6 days)","plant growth inhibition index, Japanese millet [3, 10]","plant growth inhibition index, Japanese millet ([3]; 800 μM, 6 days)","plant growth inhibition index, Ragweed [4, 10]","plant growth inhibition index, Ragweed ([4]; 800 μM, 6 days)",Index [5],"index on the plant growth inhibition effect ([5]; 200 μM, 8 days (Evaluation 8))","killing weed index, Velvet leaf ([6]; sprayed liquid amount 250 L/ha)","killing weed index, Velvet leaf [6, 11]","killing weed index, Japanese bristlegrass [7]","killing weed index, Purple amaranth ([8]; sprayed liquid amount 250 L/ha)","killing weed index, Purple amaranth [8, 11]","killing weed index, Southern crabgrass ([9]; sprayed liquid amount 250 L/ha)","killing weed index, Southern crabgrass [9, 11]"
CCCCCCCCCOn1cccc1C(=O)N(C)C [Compound 9g],0,0,"3 (Growth of the stem and leave parts was inhibited 30% or more compared with non-treated area, or growth of the only root part was inhibited 60% or more compared with non-treated area.)","3 (Growth of the stem and leave parts was inhibited 30% or more compared with non-treated area, or growth of the only root part was inhibited 60% or more compared with non-treated area.)","3 (Growth of the stem and leave parts was inhibited 30% or more compared with non-treated area, or growth of the only root part was inhibited 60% or more compared with non-treated area.)","4 (Growth of the stem and leave parts was inhibited 40% or more compared with non-treated area, or growth of the only root part was inhibited 80% or more compared with non-treated area.)","5 (Growth of the stem and leave parts was inhibited 50% or more compared with non-treated area, or growth of the only root part was inhibited 100% or more compared with non-treated area.)",7 (Growth of the stem and leave parts was inhibited 70% or more compared with non-treated area.),3,–,–,–,–,–,–,–,–
CCCCCOn1cc(-c2cccnc2)cc1C(=O)O [Compound 9i],0,10,0,6 (Growth of the stem and leave parts was inhibited 60% or more compared with non-treated area.),"3 (Growth of the stem and leave parts was inhibited 30% or more compared with non-treated area, or growth of the only root part was inhibited 60% or more compared with non-treated area.)","4 (Growth of the stem and leave parts was inhibited 40% or more compared with non-treated area, or growth of the only root part was inhibited 80% or more compared with non-treated area.)",0,"4 (Growth of the stem and leave parts was inhibited 40% or more compared with non-treated area, or growth of the only root part was inhibited 80% or more compared with non-treated area.)",2 (Growth of the root part was inhibited 50% or more compared with non-treated area.),–,–,–,–,–,–,–,–
O=C(O)c1cccn1OCc1ccc(Oc2ccccc2)cc1 [Compound 8f],0,0,0,"5 (Growth of the stem and leave parts was inhibited 50% or more compared with non-treated area, or growth of the only root part was inhibited 100% or more compared with non-treated area.)","3 (Growth of the stem and leave parts was inhibited 30% or more compared with non-treated area, or growth of the only root part was inhibited 60% or more compared with non-treated area.)","4 (Growth of the stem and leave parts was inhibited 40% or more compared with non-treated area, or growth of the only root part was inhibited 80% or more compared with non-treated area.)",0,"5 (Growth of the stem and leave parts was inhibited 50% or more compared with non-treated area, or growth of the only root part was inhibited 100% or more compared with non-treated area.)",–,3,–,–,–,–,–,–,–
CCCCCCCCCOn1cccc1C(=O)N1CCOCC1 [Compound 9h],0,"4 (Growth of the stem and leave parts was inhibited 40% or more compared with non-treated area, or growth of the only root part was inhibited 80% or more compared with non-treated area.)","3 (Growth of the stem and leave parts was inhibited 30% or more compared with non-treated area, or growth of the only root part was inhibited 60% or more compared with non-treated area.)","5 (Growth of the stem and leave parts was inhibited 50% or more compared with non-treated area, or growth of the only root part was inhibited 100% or more compared with non-treated area.)","3 (Growth of the stem and leave parts was inhibited 30% or more compared with non-treated area, or growth of the only root part was inhibited 60% or more compared with non-treated area.)",6 (Growth of the stem and leave parts was inhibited 60% or more compared with non-treated area.),0,6 (Growth of the stem and leave parts was inhibited 60% or more compared with non-treated area.),3,–,–,–,–,–,–,–,–
"CCC(CC)Nc1c([N+](=O)[O-])cc(C)c(C)c1[N+](=O)[O-] [pendimethalin, reference compound]",–,–,–,–,–,–,–,–,–,–,5 (“5” when a killing weed rate is 59% to 50%),4 (“4” when a killing weed rate is 49% to 40%),6 (“6” when a killing weed rate is 69% to 60%),6 (“6” when a killing weed rate is 69% to 60%),0 (“0” when a killing weed rate is 9% to 0%),6 (“6” when a killing weed rate is 69% to 60%),6 (“6” when a killing weed rate is 69% to 60%)
